The source of these data is patent publication US20090156646A1, “PYRIDYLPHENOL COMPOUND AND USE THEREOF” (TAKEDA PHARMACEUTICAL COMPANY LIMITED, priority 2005, published 2009).

Counter-ions that a name gives are not always drawn. Bounds are passed on as bounds.

A word on the IC50: it is the point on the concentration scale where inhibition reaches its midpoint. Usually melting point stands for the temperature, or range, at which the solid turns liquid.

For data set [1], the target named is T1, human metastin receptor hOT7T175 (Homo sapiens, UniProt Q969F8, L364H).
T1 construct: encoding the entire length of human metastin receptor hOT7T175; expressed in transfected cells; host or cells: CHO/dhFr- cells (ATCC #CRL-9096) stably transfected with pAKKO-hOT7T175; clone h175-16 was used as whole cells for FLIPR
Kind of data set: binding inhibiting activity: 125I-metastin (40-54) binding to cell membrane fraction of h175 KB34 cells. The note with it: room temperature 60 minutes, read-out: binding inhibiting activity, represented by the IC50 value. As to the method: cDNA fragments (SEQ ID NO: 2) encoding the entire length of human metastin receptor hOT7T175 were incorporated into expression vector pAKKO1.11H to produce animal cell expression plasmids pAKKO-hOT7T175. CHO/dhFr-cells (ATCC, #CRL-9096) were seeded onto 6 cm culture dishes (Becton Dickinson) at a density of 0.3×10^6 cells/dish, and cultured in the conditions of 48 hours, 37° C. and 5% CO2. 5 μg pAKKO-hOT7T175 plasmid DNA was transfected to the resultant cells by a known method (described in Example 3 of WO 00/24890) using the Cellphect Transfection Kit (Amersham, #27-9268-01). The DNA-transfected cells were cultured in the Dulbecco's modified Eagle medium (DMEM) (Sigma, #D6046) containing 10% dialyzed FBS (Biowest, #S180D), 1× Non-Essential Amino Acid (Invitrogen, #11140-050) and 50 μg/ml Gentamycin (Invitrogen, #15750-060; and cell strains stably expressing the plasmid genes were selected. The obtained 41 clones were treated with the FLIPR assay (in accordance with the method described in Example 3 of WO 00/24890), and the reactivity to the human metastin […] (Nos. 40 to 54 of the human metastin sequence; Peptide Institute, Inc., #4389-v) was evaluated. In the end, h175 KB34 cell strains were selected. By substantially the same method, h175-16 cell strains were also produced.
The h175 KB34 cells were cultured to be on the stage of 40-50% confluency using a cell factory (Nunc, #164327), and then cells were recovered in the following method.
First, the medium was disposed, and the cells were washed twice with 200 ml EDTA/PBS(−). Another 200 ml of EDTA/PBS(−) was added, and the cells were kept still for 20 minutes at room temperature until being peeled off. The cells were recovered into four 50 ml tubes (Becton Dickinson, #352070), and centrifuged (2,000 rpm, 10 min., 4° C.) by a reduced performance centrifuge (TOMY, RL-101). The supernatant was disposed, and the pellets in the four tubes were each suspended with 10 ml EDTA/PBS(−) and collected into one tube (Becton Dickinson, #352070). The pellet was further centrifuged (2,000 rpm, 10 min., 4° C.). The resultant pellet was suspended with 20 ml ice-cooled homogenizer buffer [10 mM NaHCO3, 2 mM EGTA, 0.2 mM magnesium acetate, 10 μg/ml Leupeptin (Peptide Institute, Inc., #4041), 10 μg/ml E-64 (Peptide Institute, Inc., # 4096), 100 μg/ml o-phenanthroline (Dojindo Laboratories), 90 μg/ml PMSF (Wako Pure Chemical Industries, Ltd.), 10 μg/ml Pepstatin A (Peptide Institute, Inc., #4397), pH7.3]. The cell suspension was homogenized 3 times, each for 30 seconds, using a Polytron homogenizer. The resultant homogenate was centrifuged (2,500 rpm, 10 min, 4° C.) using a high performance refrigerated centrifuge (Hitachi, Ltd., CR26H). The supernatant was recovered into a super-centrifuge tube, and super-centrifuged (30,000 rpm, 60 min, 4° C.) using a super-centrifuge (Hitachi, Ltd., SCP70H). 3 ml homogenizer buffer was added to the resultant pellet, and the pellet was suspended by pipetting. 3 ml glycerol (Wako Pure Chemical Industries, Ltd.) was added to the resultant suspension and diluted 2-folds. The resultant substance was used as a cell membrane fraction of the h175 KB34 cells. Each […] of the membrane fraction was put into a 1.5 ml tube (Eppendorf, #0030120.086), stored in a freezer (−30 C) so as not to be frozen, and used for a binding assay.
An assay buffer was prepared on the day of the test by adding, to each 100 ml of an assay basic buffer [20 mM Tris, 2.5 mM Magnesium Acetate, 2 mM EGTA, pH 7.4], 1 mg Leupeptin (Peptide Institute, Inc., 4041), 1 mg E-64 (Peptide Institute, Inc., 4096), 10 mg o-phenanthroline (Dojindo Laboratories), 9 mg PMSF (Wako Pure Chemical Industries, Ltd.) and 1 mg Pepstatin A (Peptide Institute, Inc., 4397). The prepared assay buffer was stored at 4° C. until being used. When the measurement was to be performed with no BSA, the above-described assay buffer was used. […]

T1 sequence (Q969F8 whole entry L364H): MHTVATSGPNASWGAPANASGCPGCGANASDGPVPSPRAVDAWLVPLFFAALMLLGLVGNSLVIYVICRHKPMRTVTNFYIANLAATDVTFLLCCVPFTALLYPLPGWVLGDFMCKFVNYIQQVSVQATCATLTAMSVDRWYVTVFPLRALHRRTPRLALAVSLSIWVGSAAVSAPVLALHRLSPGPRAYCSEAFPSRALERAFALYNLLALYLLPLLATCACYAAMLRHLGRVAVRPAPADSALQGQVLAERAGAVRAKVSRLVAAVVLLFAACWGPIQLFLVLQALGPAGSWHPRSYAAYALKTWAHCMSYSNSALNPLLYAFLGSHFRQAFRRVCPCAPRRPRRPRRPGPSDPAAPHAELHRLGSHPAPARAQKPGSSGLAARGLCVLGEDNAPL

`Cl.N#Cc1c(-c2cccc(NC(=O)[C@@H]3CCCC[C@@H]3N)c2)cc(-c2ccc(F)cc2O)nc1NC(=O)c1ccco1` (racemic) [Example 267, N-{4-[3-({[(1SR,2RS)-2-aminocyclohexyl]carbonyl}amino)phenyl]-3-cyano-6-(4-fluoro-2-hydroxyphenyl)pyridin-2-yl}-2-furamide hydrochloride] gave a melting point of 224 to 225 °C. The IC50 in data set [1] is at most 10 µM. The corresponding values for `Cl.N#Cc1c(-c2cccc(NC(=O)[C@H]3CCC[C@H]3N)c2)cc(-c2ccc(F)cc2O)nc1NC(=O)c1ccco1` (racemic) [Example 278, N-{4-[3-({[(1SR,2RS)-2-aminocyclopentyl]carbonyl}amino)phenyl]-3-cyano-6-(4-fluoro-2-hydroxyphenyl)pyridin-2-yl}-2-furamide hydrochloride] are 224 to 226 °C and at most 10 µM. The corresponding values for `Cl.N#Cc1c(-c2cccc(C(=O)N[C@H]3CCCC[C@H]3N)c2)cc(-c2ccc(F)cc2O)nc1NC(=O)c1ccco1` (racemic) [Example 280, N-{4-[3-({[(1SR,2RS)-2-aminocyclohexyl]amino}carbonyl)phenyl]-3-cyano-6-(4-fluoro-2-hydroxyphenyl)pyridin-2-yl}-2-furamide hydrochloride] are 250 to 252 °C and at most 10 µM.

On to `Cl.N#Cc1c(-c2cccc(C(=O)N[C@@H]3CCCC[C@H]3N)c2)cc(-c2ccc(F)cc2O)nc1NC(=O)c1ccco1` (racemic) [Example 289, N-{4-[3-({[(1SR,2SR)-2-aminocyclohexyl]amino}carbonyl)phenyl]-3-cyano-6-(4-fluoro-2-hydroxyphenyl)pyridin-2-yl}-2-furamide hydrochloride], for which the melting point lay in the range of 285 to 288 °C. Moreover, in data set [1], the IC50 was at most 10 µM. The corresponding values for `N#Cc1c(-c2cccc(CN)c2)cc(-c2ccccc2O)nc1NC(=O)c1cccs1` [Example 1, N-[4-[3-(aminomethyl)phenyl]-3-cyano-6-(2-hydroxyphenyl)pyridin-2-yl]thiophene-2-carboxamide] are 203 to 205 °C and at most 10 µM. For `CN(C)Cc1cccc(-c2cc(-c3ccccc3O)nc(NC(=O)c3cccs3)c2C#N)c1` [Example 2, N-[3-cyano-4-{3-[(dimethylamino)methyl]phenyl}-6-(2-hydroxyphenyl)pyridin-2-yl]thiophene-2-carboxamide] the same measures were 225 to 226 °C and at most 10 µM. For `Cl.N#Cc1c(-c2cccc(C(=O)N3CCC(N)CC3)c2)cc(-c2ccccc2O)nc1NC(=O)c1cccs1` [Example 5, N-[4-{3-[(4-aminopiperidine-1-yl)carbonyl]phenyl}-3-cyano-6-(2-hydroxyphenyl)pyridin-2-yl]thiophene-2-carboxamide hydrochloride] the same measures were 215 to 218 °C and at most 10 µM. Turning to `N#Cc1c(-c2cccc(NC(=O)[C@@H](N)CN)c2)cc(-c2ccc(F)cc2O)nc1NC(=O)c1ccco1` [Example 302, N-[4-{3-[(3-amino-L-alanyl)amino]phenyl}-3-cyano-6-(4-fluoro-2-hydroxyphenyl)pyridin-2-yl]-2-furamide dihydrochloride], in data set [1], the IC50 was at most 10 µM. The same measure, in the same setting: the same measure for `CCN(CC)CCN(CC)c1cccc(-c2cc(-c3ccc(F)cc3O)nc(NC(=O)c3ccco3)c2C#N)c1` [Example 304, N-[3-cyano-4-{3-[[2-(diethylamino)ethyl] (ethyl)amino]phenyl}-6-(4-fluoro-2-hydroxyphenyl)pyridin-2-yl]-2-furamide dihydrochloride]: at most 10 µM; for `CNCC(=O)Nc1cccc(-c2cc(-c3ccc(F)cc3O)nc(NC(=O)c3ccco3)c2C#N)c1` [Example 312, N-(3-cyano-6-(4-fluoro-2-hydroxyphenyl)-4-{3-[(N-methylglycyl)amino]phenyl}pyridin-2-yl)-2-furamide hydrochloride]: at most 10 µM; for `CNCCC(=O)Nc1cccc(-c2cc(-c3ccc(F)cc3O)nc(NC(=O)c3ccco3)c2C#N)c1` [Example 313, N-(3-cyano-6-(4-fluoro-2-hydroxyphenyl)-4-{3-[(N-methyl-β-alanyl)amino]phenyl}pyridin-2-yl)-2-furamide hydrochloride]: at most 10 µM.

Consider `N#Cc1c(-c2cccc(NC(=O)C[C@H]3CCCN3)c2)cc(-c2ccc(F)cc2O)nc1NC(=O)c1ccco1` [Example 314, N-[3-cyano-6-(4-fluoro-2-hydroxyphenyl)-4-(3-{[(2R)-pyrrolidin-2-ylacetyl]amino}phenyl)pyridin-2-yl]-2-furamide hydrochloride], for which, in data set [1], the IC50 was at most 10 µM. The same measure, in the same setting: the same measure for `CCCC(CC(=O)Nc1cccc(-c2cc(-c3ccc(F)cc3O)nc(NC(=O)c3ccco3)c2C#N)c1)N(CC)CC` (centres unmarked) [Example 317, N-[3-cyano-4-(3-{[3-(diethylamino)hexanoyl]amino}phenyl)-6-(4-fluoro-2-hydroxyphenyl)pyridin-2-yl]-2-furamide hydrochloride]: at most 10 µM; for `CN(C)CCN(C)c1cccc(-c2cc(-c3ccc(F)cc3O)nc(NC(=O)c3ccco3)c2C#N)c1` [Example 324, N-[3-cyano-4-{3-[[2-(dimethylamino)ethyl] (methyl)amino]phenyl}-6-(4-fluoro-2-hydroxyphenyl)pyridin-2-yl]-2-furamide]: at most 10 µM. Same read-out and setting: the result for `N#Cc1c(-c2cccc(CN3CCNCC3)c2)cc(-c2ccc(F)cc2O)nc1NC(=O)c1ccco1` [Example 325, N-{3-cyano-6-(4-fluoro-2-hydroxyphenyl)-4-[3-(piperazine-1-ylmethyl)phenyl]pyridin-2-yl}-2-furamide ditrifluoroacetic acid] reads at most 10 µM. Same read-out and setting: the result for `CCN1CCN(c2cccc(-c3cc(-c4ccc(F)cc4O)nc(NC(=O)c4ccco4)c3C#N)c2)CC1` [Example 330, N-[3-cyano-4-[3-(4-ethylpiperazin-1-yl)phenyl]-6-(4-fluoro-2-hydroxyphenyl)pyridin-2-yl]-2-furamide hydrochloride] reads at most 10 µM. `CN1CCN(Cc2cccc(-c3cc(-c4ccc(F)cc4O)nc(NC(=O)c4ccco4)c3C#N)c2)CC1` [Example 333, N-(3-cyano-6-(4-fluoro-2-hydroxyphenyl)-4-{3-[(4-methylpiperazin-1-yl)methyl]phenyl}pyridin-2-yl)-2-furamide dihydrochloride]: the IC50 in data set [1] is at most 10 µM.

Regarding `CCN1CCN(Cc2cccc(-c3cc(-c4ccc(F)cc4O)nc(NC(=O)c4ccco4)c3C#N)c2)CC1` [Example 334, N-[3-cyano-4-{3-[(4-ethylpiperazin-1-yl)methyl]phenyl}-6-(4-fluoro-2-hydroxyphenyl)pyridin-2-yl]-2-furamide dihydrochloride], in data set [1], the IC50 was at most 10 µM. In the case of `N#Cc1c(-c2cccc(CN3CCCNCC3)c2)cc(-c2ccc(F)cc2O)nc1NC(=O)c1ccco1` [Example 335, N-[3-cyano-4-[3-(1,4-diazepan-1-ylmethyl)phenyl]-6-(4-fluoro-2-hydroxyphenyl)pyridin-2-yl]-2-furamide dihydrochloride], in data set [1], the IC50 was at most 10 µM.
